Literature values, collected in US20210059962A1, “STIMULATION OF T REGULATORY CELLS BY CANNABIDIOL AS A MEANS OF TREATING ARTHRITIS AND AUTOIMMUNITY” (priority 2019, published 2021).

SMILES	IL-10 production (HUT-78 T-cells)	constitutive production of IL-8 (NK cells; constitutive)	constitutive production of MIP-lalpha (NK cells; constitutive)	constitutive production of MIP-lbeta (NK cells; constitutive)	constitutive production of RANTES (NK cells; constitutive)	phorbol ester stimulated production of GM-CSF (NK cells; phorbol ester stimulated)	phorbol ester stimulated production of IFN-gamma (NK cells; phorbol ester stimulated)	phorbol ester stimulated production of TNF-alpha (NK cells; phorbol ester stimulated)	MIP-lbeta production (HTLV-1 positive B-cells)	IL-8 production (B-cells)	MIP-1alpha production (B-cells)	MIP-1beta production (B-cells)	IL-8 production (eosinophilic cells)	MIP-lbeta production (eosinophilic cells)
C=C(C)[C@@H]1CCC(C)=C[C@H]1c1c(O)cc(CCCCC)cc1O [CBD, 2-[3-methyl-6-(1-methylethenyl)-2-cyclohexen-1-yl]-5-pentyl-1,3-benzenedi-of]	strongly inhibited	–	–	–	–	–	–	–	–	–	–	–	–	–
CCCCCc1cc(O)c2c(c1)OC(C)(C)[C@@H]1CCC(C)=C[C@@H]21 [THC, delta9 tetrahydrocannabinol]	strongly inhibited	decreased	decreased	decreased	decreased	decreased	decreased	decreased	inhibited	tripled	tripled	tripled	doubled	tripled
